How the values were obtained:
[1] = water solubility / solubilization of the compound of Formula 1; type: physicochemical
corneal injuries = settings: cited from earlier work

Q: Which results are given for Nc1nc2c(nc(O)n2[C@H]2C[C@H](O)[C@@H](CO)O2)c(=O)[nH]1 [compound of Formula 1, 8-oxo-2′-deoxyguanosine]?
A: behaviour of aqueous solution obtained by heating when stored at room temperature ([1]; solubilized by heating, stored at room temperature): precipitates; solubility ([1]; water, room temperature (about 25° C.)): 1910 µg/mL; corneal epithelial restoration (corneal injuries): rapid corneal epithelial restoration
